{"source": "patent US20150111771A1", "about": "“Method for Identifying Agents Capable of Inducing Respiratory Sensitization and Array and Analytical Kits for Use in the Method” (SENZAGEN AB, priority 2012, published 2015)", "key": {"[1]": {"test_system": "respiratory sensitization", "settings": "cited from earlier work"}, "[2]": {"test_system": "MUTZ-3 cells", "test": "GARD transcriptional profiling of stimulated MUTZ-3 with GARD Respiratory Prediction Signature (PCA / SVM classification)", "settings": "for Transcriptional profile in PCA based on GRPS, by mechanistic subdomain: 24 h stimulation, 302 GRPS transcripts (FIG. 5B, 5C)", "procedure": "Cultures were maintained at 200.000 cells/ml during expansion, with a media change every 3-4 days. No differentiating steps were performed and instead, the proliferating progenitor MUTZ-3 was used for stimulations. Prior to each experiment, the cells were immunophenotyped using flow cytometry as a quality control. Cells were seeded in 6-well plates at 200.000 cells/ml. Stock solutions of each compound were prepared in either DMSO or distilled water, and were subsequently diluted so the in-well concentrations corresponded to the GARD input concentration, and in-well concentrations of DMSO were 0.1%. Cells were incubated for 24 h at 37° C. and 5% CO2. Thereafter, cells were harvested and analyzed by flow cytometry. In parallel, harvested cells were lysed in TRIzol reagent (Invitrogen) and stored at −20° C. until RNA extraction. Stimulations with chemicals were performed in three individual experiments, so that triplicates samples were obtained.\nIn short, a phenotypic control of MUTZ-3 was performed prior to chemical stimulation. Stimulated cells were harvested and RNA was isolated. A control of the maturity state of the cells was performed by flow cytometric analysis of CD86. Preparation of cDNA and hybridization, washing and scanning of the Human Gene 1.0 ST Arrays (Affymetrix, Santa Clara, Calif., USA) was performed, according to standardized protocols provided by the manufacturer (Affymetrix).\nIn short, microarray data were normalized and quality checked with the RMA algorithm, using Affymetrix Expression Console (Affymetrix). […] The biological relevance of the GRPS was explored using Ingenuity Pathways Analysis (IPA) (Ingenuity Systems, Inc. Mountain View, USA), by performing a ‘Core Analysis’. […] Biological relevance was established by exploring the Canonical Pathways associated with input molecules.\nThe data set was divided into a training set and a test set, consisting of 70% and 30%, of the chemical compounds, respectively. The division was performed randomly, while maintaining the proportions of sensitizers and non-sensitizers in each subset at the same ratio as in the complete data set. A test biomarker signature was identified in the training set, using ANOVA filtering and backward elimination, as described above.\nIn addition, the test set contained nine samples of DMSO and unstimulated controls respectively. […] Any samples included in this analysis are inappropriate to include in a test set due to the risk of over fitting."}, "[3]": {"test": "Max solubility of reference chemicals in cell medium", "settings": "given for non-toxic compounds insoluble at 500 μM"}, "[4]": {"test_system": "MUTZ-3 cells", "test": "Cytotoxicity by propidium iodide staining, relative viability of stimulated cells (Rv90)", "type": "cell-based, human", "settings": "concentration yielding 90% relative viability", "procedure": "All chemicals were from Sigma-Aldrich, St. Louis, Mo., USA. Compounds were dissolved in either dimethyl sulfoxide (DMSO) or distilled water."}, "[5]": {"test_system": "CD86 expression of MUTZ-3 cells", "test": "CD86 expression of MUTZ-3 cells following chemical stimulation (flow cytometry)", "type": "cell-based, human", "settings": "24 h at GARD input concentration; student's t-test vs corresponding vehicle, p<0.05, n=3", "procedure": "FIG. 4: CD86 expression of MUTZ-3 cells following chemical stimulations. Data shown is an average of (chemical stimulations, n=3, DMSO and unstimulated cells (n=6), with error bars showing standard deviation. Statistical significance was determined by student's t-test, comparing each stimulation with its corresponding vehicle, with p<0.05 indicated by *.\nBr J Haematol 2007, 138(3):281-290). […] Thereafter, cells were harvested and analyzed by flow cytometry.\nAll cell surface staining and washing steps were performed in PBS containing 1% BSA (w/v). Cells were incubated with specific mouse mAbs for 15 min at 4° C. The following mAbs were used for flow cytometry: FITC-conjugated CD1a (DakoCytomation, Glostrup, Denmark), CD34, CD86, and HLA-DR (BD Biosciences), PE-conjugated CD14 (DakoCytomation), CD54 and CD80 (BD Biosciences). Mouse IgG1, conjugated to FITC or PE were used as isotype controls (BD Biosciences) and PI was used to assess cell viability. […]\nPrior to chemical challenge, the cells were quality controlled by measuring the cellular expression of common myeloid and dendritic cell markers using flow cytometry. […] Following chemical stimulation, the general maturity state of the cells was controlled again, as determined by the expression of the co-stimulatory marker CD86, with results presented in FIG. 4. […]"}, "[6]": {"settings": "clinical observations in humans"}, "[7]": {"settings": "external test set, biological triplicates, mapped into PCA space of train data (FIG. 6A)"}}, "note": "Where two headings read alike, the source gives them in different places."}
{"smiles": "CCCCO", "note": "[1-Butanol]", "values": [{"measurement": "Classification of reference chemical as respiratory sensitizer or non-sensitizer", "setting": "[1]", "result": "non-sensitizers"}]}
{"smiles": "[Cl][Pt-2]([Cl])([Cl])([Cl])([Cl])[Cl].[NH4+].[NH4+]", "note": "[Ammonium hexachloroplatinate]", "values": [{"measurement": "Transcriptional profile in PCA based on GRPS, by mechanistic subdomain", "setting": "[2]", "result": "most extreme transcriptional changes"}, {"measurement": "Classification of reference chemical as respiratory sensitizer or non-sensitizer", "setting": "[1]; [6]", "result": "respiratory sensitizers"}, {"measurement": "Max solubility", "setting": "[3]", "result": 35, "unit": "µM"}]}
{"smiles": "N.N.O=S(=O)(O)OOS(=O)(=O)O", "note": "[Ammonium persulfate]", "values": [{"measurement": "Transcriptional profile in PCA based on GRPS, by mechanistic subdomain", "setting": "[2]", "result": "most extreme transcriptional changes"}, {"measurement": "Classification of reference chemical as respiratory sensitizer or non-sensitizer", "setting": "[1]", "result": "respiratory sensitizers"}]}
{"smiles": "Clc1ccccc1", "note": "[Chlorobenzene]", "values": [{"measurement": "Position of external test set samples in PCA plot based on the GRPS", "setting": "[2]; [7]", "result": "correctly grouped together with non-sensitizers"}, {"measurement": "Classification of reference chemical as respiratory sensitizer or non-sensitizer", "setting": "[1]", "result": "non-sensitizers"}, {"measurement": "Max solubility", "setting": "[3]", "result": 98, "unit": "µM"}]}
{"smiles": "O=CCCCC=O", "note": "[Glutaraldehyde]", "values": [{"measurement": "Rv90", "setting": "[4]", "result": 10, "unit": "µM"}, {"measurement": "CD86 expression following chemical stimulation", "setting": "[5]", "result": "statistically significant upregulation of CD86"}, {"measurement": "Transcriptional profile in PCA based on GRPS, by mechanistic subdomain", "setting": "[2]", "result": "groups closely with both acid anhydrides and diisocyanates"}, {"measurement": "Classification of reference chemical as respiratory sensitizer or non-sensitizer", "setting": "[1]; [6]", "result": "respiratory sensitizers"}]}
{"smiles": "O=C=NCCCCCCN=C=O", "note": "[Hexamethylen diisocyanate]", "values": [{"measurement": "CD86 expression following chemical stimulation", "setting": "[5]", "result": "statistically significant upregulation of CD86"}, {"measurement": "Classification of reference chemical as respiratory sensitizer or non-sensitizer", "setting": "[1]; [6]", "result": "respiratory sensitizers"}, {"measurement": "Max solubility", "setting": "[3]", "result": 100, "unit": "µM"}]}
{"smiles": "CC(C)O", "note": "[Isopropanol]", "values": [{"measurement": "Classification of reference chemical as respiratory sensitizer or non-sensitizer", "setting": "[1]; [6]", "result": "non-sensitizers"}]}
{"smiles": "O=C1C=CC(=O)O1", "note": "[Maleic Anhydride]", "values": [{"measurement": "Classification of reference chemical as respiratory sensitizer or non-sensitizer", "setting": "[1]", "result": "respiratory sensitizers"}]}
{"smiles": "COC(=O)c1ccccc1O", "note": "[Methyl salicylate]", "values": [{"measurement": "Classification of reference chemical as respiratory sensitizer or non-sensitizer", "setting": "[1]; [6]", "result": "non-sensitizers"}]}
{"smiles": "O=C=Nc1ccc(Cc2ccc(N=C=O)cc2)cc1", "note": "[Methylene diphenol diisocyanate]", "values": [{"measurement": "Classification of reference chemical as respiratory sensitizer or non-sensitizer", "setting": "[1]; [6]", "result": "respiratory sensitizers"}, {"measurement": "Max solubility", "setting": "[3]", "result": 50, "unit": "µM"}]}
{"smiles": "O=C1OC(=O)c2ccccc21", "note": "[Phtalic Anhydride]", "values": [{"measurement": "Classification of reference chemical as respiratory sensitizer or non-sensitizer", "setting": "[1]; [6]", "result": "respiratory sensitizers"}, {"measurement": "Max solubility", "setting": "[3]", "result": 200, "unit": "µM"}]}
{"smiles": "CC(O)CO", "note": "(centres unmarked) [Propylene glycol]", "values": [{"measurement": "Classification of reference chemical as respiratory sensitizer or non-sensitizer", "setting": "[1]; [6]", "result": "non-sensitizers"}]}
{"smiles": "O=C(O)c1ccc2c(c1)C(=O)OC2=O", "note": "[Trimellitic anhydride]", "values": [{"measurement": "Classification of reference chemical as respiratory sensitizer or non-sensitizer", "setting": "[1]; [6]", "result": "respiratory sensitizers"}, {"measurement": "Max solubility", "setting": "[3]", "result": 150, "unit": "µM"}]}
{"smiles": "CCCCCCCC/C=C\\CCCCCCCC(=O)OCCOCC(OCCO)C1OCC(OCCO)C1OCCO", "note": "(centres unmarked) [Tween 80, polyoxyethylene (20) sorbitan monooleate]", "values": [{"measurement": "Classification of reference chemical as respiratory sensitizer or non-sensitizer", "setting": "[1]; [6]", "result": "non-sensitizers"}]}
{"smiles": "O=S(=O)([O-])[O-].[Zn+2]", "note": "[Zinc sulphate]", "values": [{"measurement": "Classification of reference chemical as respiratory sensitizer or non-sensitizer", "setting": "[1]; [6]", "result": "non-sensitizers"}]}
{"smiles": "O=Cc1ccccc1", "note": "[benzaldehyde]", "values": [{"measurement": "Position of external test set samples in PCA plot based on the GRPS", "setting": "[2]; [7]", "result": "correctly grouped together with non-sensitizers"}]}
{"smiles": "CCOC(=O)c1ccccc1C(=O)OCC", "note": "[diethyl phtalate]", "values": [{"measurement": "Position of external test set samples in PCA plot based on the GRPS", "setting": "[2]; [7]", "result": "correctly grouped together with non-sensitizers"}]}
{"smiles": "OCC(O)CO", "note": "[glycerol]", "values": [{"measurement": "Position of external test set samples in PCA plot based on the GRPS", "setting": "[2]", "result": "correctly grouped together with non-sensitizers"}]}
{"smiles": "CCCCCCCC(=O)O", "note": "[octanoic acid]", "values": [{"measurement": "Position of external test set samples in PCA plot based on the GRPS", "setting": "[2]", "result": "correctly grouped together with non-sensitizers"}]}
{"smiles": "Oc1ccccc1", "note": "[phenol]", "values": [{"measurement": "Position of external test set samples in PCA plot based on the GRPS", "setting": "[2]; [7]", "result": "correctly grouped together with non-sensitizers"}]}
{"smiles": "O=C(O)c1ccccc1O", "note": "[salicylic acid]", "values": [{"measurement": "Position of external test set samples in PCA plot based on the GRPS", "setting": "[2]", "result": "correctly grouped together with non-sensitizers"}]}
{"smiles": "CCCCCCCCCCCCOS(=O)(=O)[O-].[Na+]", "note": "[sodium dodecyl sulphate]", "values": [{"measurement": "Position of external test set samples in PCA plot based on the GRPS", "setting": "[2]; [7]", "result": "correctly grouped together with non-sensitizers"}]}
